Measurements: patent publication US9555029B2 (HIKMA PHARMACEUTICALS, priority 2013, dated 2017)
Read-outs that look alike come from different tables or passages of the source.

Assays:
[1] = Colchicine pharmacokinetics coadministered with voriconazole
[2] = Incidence of adverse effects for colchicine coadministered with voriconazole
Protocol: (§1) Safety was evaluated through assessment of adverse events, standard laboratory evaluations, physical examination (including vital signs) and ECG. Safety was determined by descriptive statistics.

[3] = Protocol: as §1
The inhibitor dosage form was an oral 200 mg tablet of Diflucan® (fluconazole, from Pfizer).
The fluconazole trial differed from the Example 2 protocol as follows.

[4] = cited from earlier work; for Kel / T1/2el: arithmetic mean; for AUCT / Cmax: geometric mean
[5] = for AUCT/∞ / Kel / T1/2el: mean
Remark: listed apart in the source
[6] = Treatment-1: colchicine 0.6 mg alone (day 1, fasted), clarithromycin study, cited from earlier work
[7] = Treatment-1 (day 1): colchicine 0.6 mg alone, fasted, voriconazole study, mean
[8] = Treatment-2 (day 9): colchicine 0.6 mg + voriconazole 200 mg after twice daily days 4-8, fasted, mean
[9] = of 12 subjects, colchicine + voriconazole
[10] = of 12 subjects, voriconazole study
[11] = of 12 subjects, colchicine + fluconazole
[12] = of 12 subjects, fluconazole study
[13] = Treatment-1: colchicine 0.6 mg alone (day 1, fasted), cyclosporine study
[14] = Treatment-2: colchicine 0.6 mg + cyclosporine 100 mg once (day 15)
[15] = Treatment-1 (day 1): colchicine 0.6 mg alone, fasted, propafenone study
[16] = Treatment-2 (day 9): colchicine 0.6 mg + propafenone 225 mg after twice daily days 4-8, fasted
[17] = coadministration with propafenone vs colchicine alone
[18] = of 12 subjects, cimetidine study
[19] = of 12 subjects, colchicine + cimetidine

COc1cc2c(c(OC)c1OC)-c1ccc(OC)c(=O)cc1[C@@H](NC(C)=O)CC2 [Colchicine, (S)N-(5,6,7,9-tetrahydro-1,2,3,10-tetramethoxy-9-oxobenzo[alpha]heptalen-7-yl)acetamide]
AUCT/∞ [1, 7]: 87.75% | Kel [1, 7]: 0.0240 h⁻¹ | T1/2el [1, 7]: 29.63 h | AUCT/∞ [1, 8]: 86.14% | Kel [1, 8]: 0.0227 h⁻¹ | T1/2el [1, 8]: 31.30 h | Decrease of colchicine Cmax ([1]; coadministration with voriconazole vs colchicine alone): about 20% | CL/F ([1]; male, human, in vivo, 0.6 mg): 550 mL/min | Tmax ([1]; male, human, in vivo, 0.6 mg): 1.38 h | Vd/F ([1]; male, human, in vivo, 0.6 mg): 1350 L | AUC(0-t) ([1]; male, human, in vivo, 0.6 mg, AUCT GEOMETRIC LSMEANS, Treatment-1: colchicine 0.6 mg alone, voriconazole study): 17.9 ng·h/mL | AUC(0-t) ([1]; male, human, in vivo, 0.6 mg, AUCT, Treatment-1 (day 1): colchicine 0.6 mg alone, fasted, voriconazole study, mean): 19.6 ng·h/mL | AUC(0-inf) ([1]; male, human, in vivo, 0.6 mg, AUC∞ GEOMETRIC LSMEANS, Treatment-1: colchicine 0.6 mg alone, voriconazole study): 20.5 ng·h/mL | AUC(0-inf) ([1]; male, human, in vivo, 0.6 mg, AUC∞, Treatment-1 (day 1): colchicine 0.6 mg alone, fasted, voriconazole study, mean): 22.4 ng·h/mL | Cmax ([1]; male, human, in vivo, 0.6 mg, Cmax GEOMETRIC LSMEANS, Treatment-1: colchicine 0.6 mg alone, voriconazole study): 2.3 ng/mL | Cmax ([1]; male, human, in vivo, 0.6 mg, Cmax, Treatment-1 (day 1): colchicine 0.6 mg alone, fasted, voriconazole study, mean): 2.66 ng/mL | AUC(0-t) ([1]; male, human, in vivo, AUCT GEOMETRIC LSMEANS, Treatment-2: colchicine 0.6 mg + voriconazole): 19.5 ng·h/mL | AUC(0-t) ([1]; male, human, in vivo, AUCT, Treatment-2 (day 9): colchicine 0.6 mg + voriconazole 200 mg after twice daily days 4-8, fasted, mean): 20.7 ng·h/mL | AUC(0-inf) ([1]; male, human, in vivo, AUC∞ GEOMETRIC LSMEANS, Treatment-2: colchicine 0.6 mg + voriconazole): 22.7 ng·h/mL | AUC(0-inf) ([1]; male, human, in vivo, AUC∞, Treatment-2 (day 9): colchicine 0.6 mg + voriconazole 200 mg after twice daily days 4-8, fasted, mean): 24.1 ng·h/mL | Cmax ([1]; male, human, in vivo, Cmax GEOMETRIC LSMEANS, Treatment-2: colchicine 0.6 mg + voriconazole): 1.83 ng/mL | Cmax ([1]; male, human, in vivo, Cmax, Treatment-2 (day 9): colchicine 0.6 mg + voriconazole 200 mg after twice daily days 4-8, fasted, mean): 2.06 ng/mL | Total number of adverse events after Treatment-2 ([2]; colchicine + voriconazole): 2 | Number of subjects experiencing adverse events after Treatment-2 [2, 9]: 1 | Percent of subjects experiencing adverse events after Treatment-2 [2, 9]: 8.3% | Number of subjects experiencing adverse events after Treatment-1 [2, 10]: 7 | Percent of subjects experiencing adverse events after Treatment-1 [2, 10]: 58.3% | Number of adverse events requiring medication after Treatment-1 ([2]; voriconazole study): None | Number of serious adverse events or deaths ([2]; voriconazole study): None | Total number of adverse events after Treatment-1 ([2]; voriconazole study): 20 | Total number of adverse events after Treatment-2 ([3]; colchicine + fluconazole): 3 | Number of adverse events requiring medication after Treatment-1 ([3]; fluconazole study): None | Number of serious adverse events or deaths ([3]; fluconazole study): None | Total number of adverse events after Treatment-1 ([3]; fluconazole study): 7 | Number of subjects experiencing adverse events after Treatment-2 [3, 11]: 3 | Percent of subjects experiencing adverse events after Treatment-2 [3, 11]: 25.0% | Number of subjects experiencing adverse events after Treatment-1 [3, 12]: 3 | Percent of subjects experiencing adverse events after Treatment-1 [3, 12]: 25.0% | Kel [4, 13]: 0.147 h⁻¹ | T1/2el [4, 13]: 6.777 h | CLTOT/F [4, 13]: 48.24 L/h | AUCT [4, 13]: 12,555 pg · h/mL | Cmax [4, 13]: 2,720 pg/mL | Kel [4, 14]: 0.038 h⁻¹ | T1/2el [4, 14]: 20.65 h | CLTOT/F [4, 14]: 13.42 L/h | AUCT [4, 14]: 29,830 pg · h/mL | Cmax [4, 14]: 8,820 pg/mL | AUCT/∞ [5, 15]: 88.21% | Kel [5, 15]: 0.0241 h⁻¹ | T1/2el [5, 15]: 29.74 h | AUCT/∞ [5, 16]: 89.16% | Kel [5, 16]: 0.0250 h⁻¹ | T1/2el [5, 16]: 28.25 h | Tmax (median hours) ([5]; Treatment-2 (day 9): colchicine 0.6 mg + propafenone 225 mg after twice daily days 4-8, fasted, median): 1.00 h | Increase of colchicine AUC [5, 17]: 1% | Increase of colchicine Cmax [5, 17]: 7% | Number of adverse events requiring medication after Treatment-1 (cimetidine study): None | Number of serious adverse events or deaths (cimetidine study): None | Total number of adverse events after Treatment-1 (cimetidine study): 11 | Total number of adverse events after Treatment-2 (colchicine + cimetidine): 2 | Number of subjects experiencing adverse events after Treatment-1 [18]: 7 | Percent of subjects experiencing adverse events after Treatment-1 [18]: 58.3% | Number of subjects experiencing adverse events after Treatment-2 [19]: 1 | Percent of subjects experiencing adverse events after Treatment-2 [19]: 8.3% | Kel ([6]; arithmetic mean): 0.1324 h⁻¹ | T1/2el ([6]; arithmetic mean): 8.89 h | CLTOT/F [6]: 46.8 L/h | AUCT ([6]; geometric mean): 12,370 pg · h/mL | Cmax ([6]; geometric mean): 2,840 pg/mL
